These results are taken from patent US11946070B2, “Method of reinforcing efficacy of stem cells using ethionamide” (SAMSUNG LIFE PUBLIC WELFARE FOUNDATION, priority 2019, dated 2024).

Structures are written as SMILES.

The subject of test [1] is human umbilical cord mesenchymal stem cells. To be noted: ethionamide 50 or 100 μM; FIG. 4A. The method, then: (§1) First, a 3 to 4 cm piece of umbilical cord tissue was fragmented, and treated with a collagenase solution (Gibco, USA) for 60 to 90 minutes to digest an extracellular matrix, followed by digestion with 0.25% trypsin (Gibco, USA) for 30 minutes at 37° C. Subsequently, cells were obtained by adding fetal bovine serum (FBS; Biowest, USA) to the resulting product, and then performing centrifugation at 1000×g for 10 minutes, and then cultured using Minimum Essential Media (MEM; Gibco, USA) supplemented with 10% FBS and 50 μg/ml gentamycin (Gibco, USA) at 37° C. in a 5% CO2 atmosphere, and thus mesenchymal stem cells at passage 5 or 6 were used for an experiment.
(§2) 6×10^3 cells/cm 2 of the human umbilical cord mesenchymal stem cells prepared according to the method of Example 1 were seeded in a cell culture container, and simultaneously, ethionamide was treated at a concentration of 50 μM, 100 μM or 150 μM, followed by culturing for 72 hours.
To verify whether the expression level of a paracrine factor of mesenchymal stem cells is changed by ethionamide treatment, the mesenchymal stem cells were treated with ethionamide at 50 or 100 μM, and then expression levels of a brain-derived neurotrophic factor (BDNF), a vascular endothelial cell growth factor (VEGF), insulin-like growth factor-1 (IGF-1) and a hepatocyte growth factor (HGF), which are known as paracrine factors, were measured.

Test [2] has the same test system. Conditions: ethionamide 50 or 100 μM; FIG. 4B. The method, then:
as §1, §2
Subsequently, the mesenchymal stem cells were treated with ethionamide by the same method as described above, and mRNA expression levels of antioxidation-related factors, such as HO-1, NQO1, GCLC and GCLM were measured.

For the molecule `CCc1cc(C(N)=S)ccn1` [ethionamide, 2-ethylpyridine-4-carbothioamide], in test [1], the BDNF expression level result is on record as “increases in proportion to the treated concentration of ethionamide”, the HGF expression level entry is “increases in proportion to the treated concentration of ethionamide”, the IGF-1 expression level entry is given as “increases in proportion to the treated concentration of ethionamide” and the VEGF expression level entry is listed as “increases in proportion to the treated concentration of ethionamide”. Moreover, in test [2], the “GCLC mRNA expression level” value is on record as “significantly increases in proportion to the treated concentration of ethionamide”, the “GCLM mRNA expression level” value was “significantly increases in proportion to the treated concentration of ethionamide”, the “HO-1 mRNA expression level” value was “significantly increases in proportion to the treated concentration of ethionamide” and the “NQO1 mRNA expression level” value is listed as “significantly increases in proportion to the treated concentration of ethionamide”.
